Assay results taken from patent US20030113312A1, “Skin barrier function and cohesion through enhanced stratum corneum acidification” (The Regents of the University of California, priority 2001, published 2003).
Several values for one entry are separate records, joined by “and”; a condition that tells them apart may be missing. Equal entries are not always repeated.

Key:
[1] = tested on: desmosomes in the lower stratum corneum; experiment: Desmosome density by microscopy and desmoglein-1 immunostaining; type: in vivo, mouse; conditions: for density of desmosomes in lower stratum corneum and at SC-SG interface: inhibitor-treated murine skin vs controls
Text: Ultrastructural methods: Freshly obtained biopsies from mouse skin were fixed directly in modified Karnovsky's fixative, postfixed with reduced osmium tetroxide (OS04) and then imbedded in an Epon-epoxy mixture. For visualization of lipid-enriched, lamellar bilayer structures, some samples were post fixed in ruthenium tetroxide (RuO4). Sections were cut on a Reichert Ultracut E microtome, counterstained with uranyl acetate and lead citrate, and viewed in a Zeiss 10 CR electron microscope, operated at 60 kV.
Immunofluorescence Staining: Hairless mouse skin was excised with a 6 mm punch biopsy, and the subcutaneous fat was removed. Tissue sections were incubated for 1 hour in blocking buffer (1% bovine serum albumin, 0.1% cold water fish gelatin in phosphate buffered saline (PBS)), and were then incubated for 1 hour further at room temperature with 1:500 dilution of polyclonal rabbit anti-mouse desmoglein 1 antibody (gift of Dr. John Stanley, University of Pennsylvania) diluted in blocking buffer. The tissue was then washed with blocking buffer and incubated one hour at room temperature with floroscien-labeled, isothiocyanate-conjugated, goat anti-rabbit IgG antibody (DAKO, Carpinteria, Calif., USA), diluted in blocking buffer. Either preincubation of DSG 1 antibody with DSG 1-recombinant protein (gift of Dr. Masayuki Amagai, Keio University, Tokyo, Japan), or omission of the DSG 1 primary antibody eliminated specific staining. Tissue sections then were washed with PBS and coverslipped before visualization under confocal microscope (Leica TCS SP, Heidlberg, Germany) using FITC at an excitation wavelength of 494 nm and an emisson wavelength of 518 nm.
To further investigate the changes in stratum corneum cohesion that are brought about by application of secretory phospholipase A2 inhibitors, BPB and MJ33 treated samples of murine skin and the corresponding untreated controls, were assessed by immunohistochemical staining and confocal microscopy. […]

[2] = tested on: hairless mice skin (stratum corneum); experiment: Stratum corneum cohesion: protein removed per D-Squame stripping; type: in vivo, mouse; conditions: after three days of inhibitor treatment alone; vehicle about 5
Description: Before stripping the stratum corneum, the skin surface was cleaned with a single ethanol wipe. D-Squame tapes then were placed sequentially to the test areas for about 3 sec each, removed with forceps, and stored in glass scintillation vials at 5° C.
The protein content per stripping was determined with the Bio-Rad protein assay kit. […] Each tape was incubated with 1 M NaOH for 1 hour at 37° C. in an incubator shaker at 80 rpm, and neutralized thereafter with 1 mL of 1 M HCl in the scintillation vials. Subsequently, 0.2 mL of this solution was incubated in 0.6 ml distilled water plus 0.2 mL of the Bio-Rad protein dye for 5 minutes in boroscillate tubes. […] An empty D-Squame tape, as well as distilled water incubated with Bio-Rad dye, served as negative controls. The amount of calculated protein was then normalized to skin surface area (μg/cm^2).

[3] = tested on: hairless mice skin (stratum corneum); experiment: Stratum corneum integrity: TEWL after sequential tape stripping; type: in vivo, mouse
Description: The mice were anesthetized with chloral hydrate (Morton Grove Pharmaceuticals, Morton Grove, Ill., USA). […] After 15 minutes, barrier function was determined by measurement of transepidermal water loss (TEWL) with an electrolytic water analyzer (MEECO®, Warrington, Pa.). […] Individually tested sites were covered with Hilltop Chambers (HtC, nominal volume 200 mL), which were reapplied following each indvidual measurement.
The stratum corneum was removed by several strippings with adhesive tape (Tesa, Beiersdorf, Germany) inducing an increase in TEWL rates above baseline (from 0.2 to approximately 7-9 g/m^2/h). Two sites were prepared on each animal, and TEWL and surface pH were measured at 0, 2, 5 and 24 hrs following the stripping and the applications of inhibitors.

Murine skin = conditions: 4 mg/mL topical in propylene glycol:ethanol; cited from earlier work
[4] = tested on: hairless mice skin (stratum corneum); experiment: Skin surface pH after topical treatment or buffer exposure; type: in vivo, mouse; conditions: for pH of the stratum corneum: BPB alone, three days
Description: Animals: Male hairless mice (Skh1/Hr, Charles River Laboratories, Wilmington, Mass.), 8-12 weeks old, were fed Purina mouse diet and water ad libitum. […] Functional experiments were performed on animals aged 6-10 weeks.
The mice were anesthetized with chloral hydrate (Morton Grove Pharmaceuticals, Morton Grove, Ill., USA). After 3 hours immersion at 37° C., the mice were removed, and the remaining buffer was gently blotted off. After 15 minutes, barrier function was determined by measurement of transepidermal water loss (TEWL) with an electrolytic water analyzer (MEECO®, Warrington, Pa.). Surface pH was measured with a flat, glass surface electrode from Mettler-Toledo (Giessen, Germany), attached to a pH meter (Skin pH Meter PH 900, Courage & Khazaka, Cologne, Germany). Individually tested sites were covered with Hilltop Chambers (HtC, nominal volume 200 mL), which were reapplied following each indvidual measurement.

[5] = tested on: hairless mice skin (stratum corneum); experiment: Barrier function by transepidermal water loss (TEWL); type: in vivo, mouse
Description: Animals: Male hairless mice (Skh1/Hr, Charles River Laboratories, Wilmington, Mass.), 8-12 weeks old, were fed Purina mouse diet and water ad libitum. […] Each litter was genotyped separately. Functional experiments were performed on animals aged 6-10 weeks.
The mice were anesthetized with chloral hydrate (Morton Grove Pharmaceuticals, Morton Grove, Ill., USA). After 3 hours immersion at 37° C., the mice were removed, and the remaining buffer was gently blotted off. After 15 minutes, barrier function was determined by measurement of transepidermal water loss (TEWL) with an electrolytic water analyzer (MEECO®, Warrington, Pa.). Surface pH was measured with a flat, glass surface electrode from Mettler-Toledo (Giessen, Germany), attached to a pH meter (Skin pH Meter PH 900, Courage & Khazaka, Cologne, Germany). Individually tested sites were covered with Hilltop Chambers (HtC, nominal volume […]), which were reapplied following each indvidual measurement.

Row | Compound | density of desmosomes in lower stratum corneum and at SC-SG interface [1] | density of DSG1 positive clusters ([1]; laser confocal microscopy, treated vs vehicle stratum corneum) | protein removed, first D-Squame strip [2] | TEWL rate after fifth tape strip ([3]; after three days of inhibitor treatment alone, vehicle close to 25) | TEWL rate after second tape strip ([3]; after three days of inhibitor treatment alone, vehicle closer to 5) [g/m^2/h] | toxicity of the dose employed to Murine skin (Murine skin) | pH of the stratum corneum ([4]; comparator of the linoleic acid co-application) | pH of the stratum corneum ([4]; comparator of the palmitic acid co-application) | pH of the stratum corneum ([4]; comparator of the stearic acid co-application) | pH of the skin ([4]; hairless mice, 4 mg/mL topical twice daily, after one day, starting value about pH 5.6) [pH] | final average pH of treated sites ([4]; hairless mice, 4 mg/mL topical twice daily, day 3, vehicle close to pH 5.4) [pH] | TEWL rate ([5]; 4 mg/mL topical twice daily, day 2, vehicle closer to 2.5) [g/m^2/h] | TEWL rate ([5]; 4 mg/mL topical twice daily, day three, vehicle near 3) [g/m^2/h] | TEWL rate after three consecutive tape strips ([3]; day 3 of inhibitor treatment alone, vehicle closer to 40) [g/m^2/h] | stratum corneum surface pH ([4]; MJ33 4 mg/mL topical, vs vehicle 5.60+/-0.05, p=0.0023) | fold increase in TEWL rates ([5]; by day three, vs vehicle) | TEWL rate ([5]; repeated applications, day three, vs vehicle 2.97+/-0.16, p<0.001)
1 | O=C(CBr)c1ccc(Br)cc1 [BPB, bromphenacyl bromide] | dramatic reduction | decline dramatically | about 20 μg/cm^2 | ~90 g/m^2/h and 80-100 g/m^2/h | ~20 | non-toxic | 6.28+/−0.1 | 5.92+/−0.05 | 6.17+/−0.08 | ~6.0 | ~6.4 | ~6 | ~11 | – | – | – | –
2 | CCCCCCCCCCCCCCCCOCC(COCC(F)(F)F)OP(=O)(O)OC (stereo not shown) [MJ33, One-hexadecyl-3-triflouroethylglycero-sn-2-phosphomethanol] | dramatic reduction | – | – | – | – | non-toxic | – | – | – | – | – | – | – | ~75 | 5.87+/−0.06 | 2-3 fold | 5.19+/−0.81
